Measured values taken from patent publication US20090298707A1, “SPARSE MATRIX SYSTEM AND METHOD FOR IDENTIFICATION OF SPECIFIC LIGANDS OR TARGETS” (priority 2008, published 2009).

Columns and labels:
[1] = per amino acid; cited from earlier work
[2] = system: S. aureus AM1; assay: Pulldown binding assay, Langmuir isotherm fit, S. aureus; parameters: species or system Staphylococcus aureus; conditions: for Langmuir Affinity (Ka): association constant from Langmuir isotherm fit, fluorescein-labeled peptide 0-100 μM; for Monolayer Concentration (N): maximum surface concentration from Langmuir fit
From the text: (§1) To investigate whether the changes in the observed level of binding were due to changes in the affinities or avidities of the refined peptides for cell surfaces, binding curves were generated for selected peptides and fit to the Langmuir isotherm (where possible), the simplest model describing binding to surfaces (peptides showing either complex or nonspecific binding isotherms were excluded from this analysis).
(§2) Measurements were taken of the absorbance of the labeled peptide at 488 nm (the peak absorbance of the fluorescein label) before and after exposure to the cells. The amount of peptide bound was calculated by comparing the ratio of the final (Af) and initial (Ai) absorbances to the initial concentration (C0)[Cbound=C0(1−(Af/Ai))]. Bacterial surface area per sample was calculated using a stage micrometer to determine the average cell diameter for each species (1.0+/−0.1 μm for S. aureus AM1, 2.7+/−0.1 μm for M. luteus MS2), treating individual cells as discrete spheres. Average cell concentration per unit OD600 was calculated using a hemocytometer.
(§3) Plots were then generated of the amount of peptide bound per m^2 of bacterial surface area vs. the concentration of unbound peptide at equilibrium. Where possible, the resulting isotherms were fit to the Langmuir isotherm (P/A=(KaNCeq)/(1+KaCeq), where P/A represents the molar amount of peptide bound per unit of bacterial surface area, Ka is the association constant of the peptide with the bacterial surface (L/Mol), N is the maximum surface concentration (mol/m^2), and Ceq is the molar concentration of unbound peptide at equilibrium) (Calis et al. (1995) Pharm Res 12(7): 1072-1076). Data plots and curvefits were obtained using Kaleidagraph (Synergy Software).

[3] = system: M. luteus MS2; assay: Pulldown binding assay, Langmuir isotherm fit, M. luteus; parameters: species or system Micrococcus luteus; conditions: for Langmuir Affinity (Ka): association constant from Langmuir isotherm fit; for Monolayer Concentration (N): maximum surface concentration from Langmuir fit
From the text: as §1, §2, §3

[4] = system: immobilized S. aureus cells; assay: Fluorescence microscopy binding of labeled peptides to immobilized bacteria, S. aureus; parameters: species or system Staphylococcus aureus; conditions: for Binding to immobilized S. aureus relative to peptides of the original pilot library: refined libraries, fluorescence images; for Binding to S. aureus (fluorescent staining): 25 μM fluorescein-labeled peptide, 10 minutes, immobilized cells
Experimental: Peptide samples were prepared at a concentration of 25 μM for screening against a variety of organisms by exposing immobilized bacteria to labeled peptides. For bacterial cell binding assays, cells were grown overnight, washed, and immobilized in a polylysine-coated 96-well plate. Fluorescein-labeled peptide samples were applied to immobilized bacteria, incubated for 10 minutes and washed extensively to remove unbound peptide. Samples were visualized by fluorescence microscopy. For each peptide, both brightfield and fluorescence images were collected, and camera and microscope settings were not altered between images. The locations of cells and background regions were determined using the brightfield images; those regions were then selected in the fluorescence images for quantitation of pixel values for determination of relative fluorescence intensities (represented as bacterial fluorescence/background fluorescence) using the GNU Image Manipulation Program (The GIMP, see, e.g., www.gimp.org).
The following bacterial species and strains were used: Lactobacillus casei (strain), Escherichia coli (W3110), Enterococcus faecium (strain), Streptococcus mutans (UA140), Streptococcus mitis (ATCC 903), Streptococcus gordonii (NY101), Pseudomonas aeruginosa(strain K), Klebsiella pneumoniae (KAY2026), Myxococcus xanthus (Strains DK1622, wildtype, and difA, exopolysaccharide deficient^21), Micrococcus luteus (strain MS2, a community isolate), Staphylococcus epidermidis (strain), and Staphylococcus aureus(strains, and AM1, a methicillin/oxacillin-resistant community isolate).
For isolation of community-acquired S. aureus and M. luteus strains (strains MS2 and AM1), swabs were collected from the nostrils of several volunteers and streaked on Brain-Heart Infusion (BHI) agar and incubated at 37° C. overnight. Yellow colonies were isolated and typed (Microbial ID, Inc., Newark, Del.). Antibiotic resistance was assayed by plating on BHI in the presence of various antibiotics. Commercially available antibiotic susceptibility test disks were used to assay for oxacillin resistance (BD Biosciences), according to the manufacturer's instructions. Due to the difficulty of obtaining methicillin, oxacillin resistance was used as a proxy for methicillin resistance in isolated strains.^22
The peptides comprising these two refined libraries were synthesized, labeled, and screened against immobilized S. aureus cells exactly as for the original pilot library.
To examine the specificities of the peptides identified in this experiment, a diverse panel of various strains of bacteria was assembled, consisting of Lactobacillus casei, Escherichia coli, Enterococcus faecalis, Streptococcus mutans, Streptococcus mitis, Streptococcus gordonii, Pseudomonas aeruginosa, Klebsiella pneumoniae, Micrococcus luteus (strain MS2), Staphylococcus epidermidis, and two strains of Staphylococcus aureus: a methicillin/oxacillin-sensitive community isolate and our methicillin/oxacillin-resistant community isolate of (strain AM1). Peptides 3C and 4D from the original pilot library were screened for binding against these bacteria by fluorescence microscopy, and images were analyzed as before.

N[C@@H](Cc1ccccc1)C(=O)O [Phe]
Hydrophobicity (Fauchere and Pliska, 1983) [1]: 1.79

Orthogonal refinement 2C: orthogonal refined library peptide, SEQ ID NO:71 (IVSQVIQNL; synthetic orthogonal refinement library peptide C2)
Langmuir Affinity (Ka) [2]: 1.1 ± 0.3 M^−1 × 10000
Monolayer Concentration (N) [2]: 7 ± 1 Mol/m^2 × 0.0001
Langmuir Affinity (Ka) [3]: 1.4 ± 0.4 M^−1 × 10000
Monolayer Concentration (N) [3]: 0.12 ± 0.03 Mol/m^2 × 0.0001

C[C@@H](O)[C@H](N)C(=O)O [Thr]
Hydrophobicity (Fauchere and Pliska, 1983) [1]: 0.26

Orthogonal refinement 2B: orthogonal refined library peptide, SEQ ID NO:67 (IVVSQQILN; synthetic orthogonal refinement library peptide B2)
Langmuir Affinity (Ka) [3]: 0.4 ± 0.3 M^−1 × 10000
Monolayer Concentration (N) [3]: 0.5 ± 0.3 Mol/m^2 × 0.0001

CC[C@H](C)[C@H](N)C(=O)O [Ile]
Hydrophobicity (Fauchere and Pliska, 1983) [1]: 1.8

In-plane refinement B2: in-plane refined library peptide, SEQ ID NO:51 (IVSQVIQNL; synthetic in-plane refinement library peptide B2)
Binding to immobilized S. aureus relative to peptides of the original pilot library [4]: enhanced binding

Pilot Library 4C: pilot library 9-mer, SEQ ID NO:24; became A4 of the in-plane matrix (SEQ ID NO:49) (LIKDILERL; synthetic pilot library peptide C4)
Binding to S. aureus (fluorescent staining) [4]: some of the brightest unique staining
Langmuir Affinity (Ka) [2]: 5 ± 1 M^−1 × 10000
Monolayer Concentration (N) [2]: 0.23 ± 0.2 Mol/m^2 × 0.0001
Langmuir Affinity (Ka) [3]: 1 ± 0.6 M^−1 × 10000
Monolayer Concentration (N) [3]: 0.10 ± 0.04 Mol/m^2 × 0.0001

N[C@@H](Cc1c[nH]c2ccccc12)C(=O)O [Trp]
Hydrophobicity (Fauchere and Pliska, 1983) [1]: 2.25

N[C@@H](Cc1c[nH]cn1)C(=O)O [His]
Hydrophobicity (Fauchere and Pliska, 1983) [1]: 0.13

In-plane refinement C2: in-plane refined library peptide, SEQ ID NO:55 (LVSQVLQNV; synthetic in-plane refinement library peptide C2)
Binding to immobilized S. aureus relative to peptides of the original pilot library [4]: enhanced binding

In-plane refinement C4: in-plane refined library peptide, SEQ ID NO:57 (LVKDVLERV; synthetic in-plane refinement library peptide C4)
Binding to immobilized S. aureus relative to peptides of the original pilot library [4]: enhanced binding

N[C@@H](Cc1ccc(O)cc1)C(=O)O [Tyr]
Hydrophobicity (Fauchere and Pliska, 1983) [1]: 0.96

In-plane refinement 3A: in-plane refined library peptide, SEQ ID NO:48 (LIERILQNL; synthetic in-plane refinement library peptide A3)
Binding to S. aureus (fluorescent staining) [4]: binding was seen only to the methicillin/oxacilin-resistant strain of S. aureus
Binding to immobilized S. aureus relative to peptides of the original pilot library [4]: enhanced binding
Affinity relative to initial hits / parent peptide of the pilot library ([2]; in words): increased affinity
Langmuir Affinity (Ka) [3]: 8 ± 3 M^−1 × 10000
Nmax relative to peptides from the parent library ([3]; in words): sharp reduction
Monolayer Concentration (N) [3]: 0.0047 ± 0.006 Mol/m^2 × 0.0001

NC(=O)C[C@H](N)C(=O)O [Asn]
Hydrophobicity (Fauchere and Pliska, 1983) [1]: −0.6

N[C@@H](CCC(=O)O)C(=O)O [Glu]
Hydrophobicity (Fauchere and Pliska, 1983) [1]: −0.64

C[C@H](N)C(=O)O [Ala]
Hydrophobicity (Fauchere and Pliska, 1983) [1]: 0.31

N[C@@H](CC(=O)O)C(=O)O [Asp]
Hydrophobicity (Fauchere and Pliska, 1983) [1]: −0.77

CC(C)[C@H](N)C(=O)O [Val]
Hydrophobicity (Fauchere and Pliska, 1983) [1]: 1.22

Pilot Library 3D: pilot library 9-mer, SEQ ID NO:29; became D1 of the in-plane matrix (SEQ ID NO:58) (VASYVATQV; synthetic pilot library peptide D3)
Binding to S. aureus (fluorescent staining) [4]: some of the brightest unique staining
Langmuir Affinity (Ka) [2]: 6 ± 1 M^−1 × 10000
Monolayer Concentration (N) [2]: 0.18 ± 0.2 Mol/m^2 × 0.0001
Langmuir Affinity (Ka) [3]: 10 ± 7 M^−1 × 10000
Monolayer Concentration (N) [3]: 0.021 ± 0.004 Mol/m^2 × 0.0001

CSCC[C@H](N)C(=O)O [Met]
Hydrophobicity (Fauchere and Pliska, 1983) [1]: 1.23

NCC(=O)O [Gly]
Hydrophobicity (Fauchere and Pliska, 1983) [1]: 0

O=C(O)[C@@H]1CCCN1 [Pro]
Hydrophobicity (Fauchere and Pliska, 1983) [1]: 0.72

In-plane refinement C1: in-plane refined library peptide, SEQ ID NO:54 (LVSYVLTQV; synthetic in-plane refinement library peptide C1)
Binding to immobilized S. aureus relative to peptides of the original pilot library [4]: enhanced binding

In-plane refinement B4: in-plane refined library peptide, SEQ ID NO:53 (IVKDVIERL; synthetic in-plane refinement library peptide B4)
Binding to immobilized S. aureus relative to peptides of the original pilot library [4]: enhanced binding

N=C(N)NCCC[C@H](N)C(=O)O [Arg]
Hydrophobicity (Fauchere and Pliska, 1983) [1]: −1.01

NC(=O)CC[C@H](N)C(=O)O [Gln]
Hydrophobicity (Fauchere and Pliska, 1983) [1]: −0.22

NCCCC[C@H](N)C(=O)O [Lys]
Hydrophobicity (Fauchere and Pliska, 1983) [1]: −0.99

CC(C)C[C@H](N)C(=O)O [Leu]
Hydrophobicity (Fauchere and Pliska, 1983) [1]: 1.7

Orthogonal refinement 2A: orthogonal refined library peptide, SEQ ID NO:63 (IVVILSQQN; synthetic orthogonal refinement library peptide A2)
Langmuir Affinity (Ka) [2]: 13 ± 4 M^−1 × 10000
Affinity relative to initial hits / parent peptide of the pilot library ([2]; in words): comparable affinity
Nmax relative to pilot library hits ([2]; in words): significant increase
Monolayer Concentration (N) [2]: 0.14 ± 0.01 Mol/m^2 × 0.0001
Langmuir Affinity (Ka) [3]: 1.6 ± 0.7 M^−1 × 10000
KA relative to peptides from the parent library ([3]; in words): no significant changes
Nmax relative to peptides from the parent library ([3]; in words): no significant changes
Monolayer Concentration (N) [3]: 0.5 ± 0.2 Mol/m^2 × 0.0001
